# From patent US10513499B2, “Inhibitors of alpha-amino-beta-carboxymuconic acid semialdehyde decarboxylase” (TES Pharma S.r.l., priority 2014, dated 2019)
# “Also recorded” adds a separate entry of the source.
# Legend:
# ACMSD-1 = ACMSD-1 (Homo sapiens (Human), UniProt Q8TDX5); assay: ACMSD-1 modulation in HEK293T cells transiently expressing ACMSD; type: cell-based; details: about 50 nM to about 5 uM; stimulated 48 hrs to 72 hrs
# Description: HEK293T cells are seeded and transfected to transiently express ACMSD. The cells are then stimulated with different concentrations of Compound 1, and then lysed to measure the ACMSD activity in a spectrophotometrical in vitro assay. The amount of the whole protein content in cell lysates is detected by Bradford analysis and used to get the specificity activity of the enzyme normalized in all samples.
# HEK293T cells (ATCC) were seeded in six-well plates and transfected using Fugene HD to express transiently ACMSD. 24 hrs post transfection, the cells were stimulated for 48 hrs to 72 hrs with different concentrations of Compound 1 and then lysed to measure the ACMSD activity, by measuring the conversion of 30H-Anthranilic Acid into product (i.e. α-amino-beta-carboxymuconate-ε-semialdehyde, ACMS) in a spectrophotometrical in vitro assay. The amount of the whole protein content in cell lysates was detected by Bradford analysis. This value was used to get the specificity activity of the enzyme normalized in all samples (mU/ml or ΔE/Δt/mg of total protein).
# Having determined the optimum stimulation time and transfection protocol cells were stimulated with different concentrations of Compound 1 (about 50 nM to about 5 uM).
# [1] = tested on: SOD2 activity in AML-12 cells; assay: Modulation of SOD2 activity in AML-12 cells; type: cell-based, mouse; details: 24 hours
# Description: Primary hepatocytes or AML-12 cells are lysed and total protein concentration is determined using the Bradford assay. SOD2 activity is determined at indicated times after treatment with a compound of Formula (I), Formula (Ia), Formula (Ib), Formula (II), or Formula (III), or a pharmaceutically acceptable salt thereof, using a SOD Assay Kit. Absorbance is determined and results are expressed in U/ml/mg of protein according to the standard curve and measured protein concentration. […]
# (§1) Primary hepatocytes or AML-12 cells were then lysed in a 20 mM HEPES buffer (Gibco), pH 7.2, containing 1 mM EGTA (Sigma), 210 mM mannitol (Sigma), and 70 mM sucrose (AMRESCO). Total protein concentration was determined using the Bradford assay (BioRad). SOD-2 activity was determined at indicated times after ACMSD inhibitor treatment by the SOD Assay Kit (Cayman Chemical) according to the manufacturer's instructions. […] Absorbance was determined with a Victor X4 multi-label plate reader (Perkin-Elmer) at 450 nm. Results are expressed in U/ml/mg of protein according to the standard curve and measured protein concentration.
# [2] = tested on: SOD2 activity in primary murine hepatocytes; assay: Modulation of SOD2 activity in murine primary hepatocytes; type: cell-based, mouse; details: for SOD2 activity: primary murine hepatocytes, 24 hours
# Description: Primary hepatocytes or AML-12 cells are lysed and total protein concentration is determined using the Bradford assay. SOD2 activity is determined at indicated times after treatment with a compound of Formula (I), Formula (Ia), Formula (Ib), Formula (II), or Formula (III), or a pharmaceutically acceptable salt thereof, using a SOD Assay Kit. Absorbance is determined and results are expressed in U/ml/mg of protein according to the standard curve and measured protein concentration.
# Primary hepatocytes were prepared from 8-12-week-old C57BL/6J mice by collagenase perfusion method. Mouse livers were perfused with Hank's balanced salt solution (HBSS, KCl, 5.4 mM; KH2PO4, 0.45 mM; NaCl, 138 mM; NaHCO3, 4.2 mM; Na2HPO4, 0.34 mM; glucose, 5.5 mM; […]; EGTA, 50 mM; CaCl2, 50 mM; pH 7.4). Livers were then washed at a rate of 5 ml/min through the portal vein. After washing, livers were perfused with collagenase (0.025%) solution. Cell viability was assessed by the trypan blue method. Isolated primary hepatocytes were plated with DMEM medium (Gibco) including 10% FCS, 10 units per ml penicillin and HEPES for buffering. The cells were maintained in culture at 37° C. in a humidified atmosphere of 5% CO2/95% air. After 6-8 hrs of attachment, this medium was replaced with media containing different concentrations of an ACMSD inhibitor (i.e., Compound 1 or Compound 17) or with the corresponding concentration of DMSO (as a control). […]
# as §1
# AML-12 cells [3] = assay: RT-qPCR analysis of SIRT1-regulated genes in AML-12 cells; type: cell-based, mouse; details: 24 hrs
# Description: (§2) Cells (AML-12, Hepa-1.6, HEK-293, primary human and murine hepatocytes) are treated with different concentrations of a compound of Formula (I), Formula (Ia), Formula (Ib), Formula (II), or Formula (III), or a pharmaceutically acceptable salt thereof and the gene expression of ACMSD, Pgc1a, Sod1, and Sod2 (MnSOD) is determined using RT-qPCR. Total RNA is extracted from cells and the extracted RNA is treated with DNase and used for reverse transcription (RT).
# (§3) Gene expression of ACMSD and genes known to be regulated by SIRT1, (an enzyme that is strictly NAD^+ dependent) such as Pgc1a, Sod1, Sod2 (MnSOD), were analysed in AML-12 cells, Hepa-1.6 cells and primary murine hepatocytes treated with Compound 1 or 17.
# (§4) Cells (AML-12, Hepa-1.6, HEK-293, primary human and murine hepatocytes) were treated with different concentrations of Compound 1 or Compound 17. Total RNA was extracted from cells using TRIzol (Invitrogen) according to the manufacturer's instructions. The RNA was treated with DNase, and 2 μg of RNA was used for reverse transcription (RT). 50× diluted cDNA was used for RT-quantitative PCR (RT-qPCR) reactions. The RT-qPCR reactions were performed using the Light-Cycler system (Roche Applied Science) and a qPCR Supermix (QIAGEN) with the indicated primers. The average of at least three technical repeats was used for each biological data point.
# Hepa-1.6 cells = assay: RT-qPCR analysis of SIRT1-regulated genes in Hepa-1.6 cells; type: cell-based; details: 24 hrs
# Description: as §2, §3, §4
# AML-12 cells [4] = assay: Cytotoxicity in AML-12 cells (LDH release, ATP level); type: cell-based, mouse; details: 10 nM to 300 μM, 4 hrs
# Description: (§5) HePG2 and AML-12 cells are seeded and a dose-response of the compound is performed at various concentrations. Cells are stimulated and the supernatant is used to perform LDH release as a measure of necrosis while the cells are lysed to detect ATP levels for determining cell viability.
# (§6) Cytotoxicity: 20000 HePG2 and AML-12 cells were seeded in 96 well plate (Viewplate PerkinElmer). Dose-response of the compound in Table 2 was performed using HP D300 digital dispenser, ranging from 10 nM to 300 μM with constant DMSO 1% in medium. Cells were stimulated for 4 hrs at 37° C.; the supernatant was used to perform LDH release (Cytotox-one, Promega) as a measure of necrosis while the cells were lysed to detect ATP level for determining cell viability (Celltiter-glo, Promega) according to manufacturer's instructions.
# HePG2 cells = assay: Cytotoxicity in HePG2 cells (LDH release, ATP level); type: cell-based; details: 10 nM to 300 μM, 4 hrs
# Description: as §5, §6
# [5] = tested on: FoxO1 phosphorylation at Ser256; assay: FoxO1 phosphorylation levels in AML-12 cells (western blot); type: cell-based, mouse; details: 24 hours, increasing dose
# Description: AML-12 cells are treated with different concentrations of a compound of Formula (I), Formula (Ia), Formula (Ib), Formula (II), or Formula (III), or a pharmaceutically acceptable salt thereof. Cells are then lysed, and analyzed by SDS-PAGE/western blot. Blocking and antibody incubations are then done and each protein present is detected with its specific antibody.
# AML-12 cells were treated with different concentrations of Compound 1 or Compound 17 for 24 hours. Cells were then lysed in lysis buffer (50 mM Tris, 150 mM KCl, EDTA 1 mM, NP40 1%) containing protease and phosphatase inhibitors, and analyzed by SDS-PAGE/western blot. Blocking and antibody incubations were done in 5% milk. Each protein present was detected with its specific antibody. Tubulin antibody was obtained from Sigma Inc, FoxO1 and phopho-FoxO1 (Ser256) antibodies were obtained from Cell Signaling. Antibody detection reactions were developed by enhanced chemiluminescence (Advansta, Calif., USA) using x-ray films.
# [6] = tested on: murine primary hepatocytes; assay: NAD+ content in murine primary hepatocytes (HPLC, mass-spectrometry); type: cell-based, mouse; details: 5 nM, 10 nM and 50 nM for 24 hours
# [7] = tested on: primary mouse hepatocytes; assay: RT-qPCR analysis of SIRT1-regulated genes in primary mouse hepatocytes; type: cell-based; details: 24 hrs, 5 nM-500 nM range
# Description: as §2, §3, §4
# MDCK cells = assay: Modulation of cisplatin-induced caspase 3/7 activity in MDCK cells; type: cell-based; details: for EC50: Canis lupus familiaris, MDCK
# Description: MDCK cells are cultured in base medium to a final concentration of 10%. Cells are plated into 96 wells and 24 hours after cell plating the medium is changed with fresh medium supplemented with 1% FBS. Cisplatin is then used to induce cell injury. Different concentrations of Formula (I), Formula (Ia), Formula (Ib), Formula (II), or Formula (III), or a pharmaceutically acceptable salt thereof (in DMSO) are added in combination with cisplatin or prior to adding cisplatin. Caspase 3/7 activity (Promega) is determined according to standard procedures using a luminescent signal readout on a plate reader. Each experiment/condition is performed in triplicate. Caspase activity is analyzed as percentage effect normalized to the cisplatin alone and vehicle treated cells.
# An in vitro study was performed to determine the effects of compounds of Formula (I), Formula (Ia), Formula (Ib), Formula (II), or Formula (III), or a pharmaceutically acceptable salt thereof, on Acute Kidney Injury in MDCK cells.
# MDCK cells (MDCK (NBL-2) ATCC® CCL-34™) were cultured in base medium ATCC-formulated Eagle's Minimum Essential Medium, Catalog No. 30-2003 with fetal bovine serum (FBS) to a final concentration of 10%. 10,000 cells were plated into 96 wells and 24 hours after cell plating the medium was changed with fresh medium supplemented with 1% FBS. Cisplatin (50 μM for 16 hrs) was then used to induce cell injury. Different concentrations of Compound 18 (in 1% DMSO) were added in combination with cisplatin (FIG. 1) or 1 hour prior adding cisplatin (FIG. 2).
# Caspase 3/7 activity (Promega) was determined according to standard procedures using a luminescent signal readout on a Victor V plate reader (PerkinElmer). Each experiment/condition was performed in triplicate.
# Caspase activity was analyzed as percentage effect normalized to the cisplatin alone (100%) and vehicle treated cells as 0% of caspase activity. Data were analyzed by GraphPad Software. One-way analysis of variance (Dunnett's Multiple Comparison test) was used for statistical analyses.
# [8] = tested on: human primary hepatocytes; assay: NAD+ content in human primary hepatocytes by LCMS/MS; type: cell-based; details: tested at 0.5 μM and 5 μM; compound replaced every 24 hrs
# Description: Primary hepatocytes are treated with different concentrations of a compound of Formula (I), Formula (Ia), Formula (Ib), Formula (II), or Formula (III), or a pharmaceutically acceptable salt thereof, or MEHP (control) after seeding. The compound is replaced every 24 hours, and then cells are directly harvested and lysed to detect NAD^+ content through LC MS/MS (liquid chromatography mass spectrometry/mass spectroscopy).
# The NAD^+ concentration or content was determined in human primary hepatocytes treated with Compound 4. Vehicle (NT) was used as a control.
# At least three experiments were run treating primary hepatocytes with different concentrations of Compound 4 (0.5 μM and 5 μM) after 48 hrs from seeding. Compound 4 was replaced every 24 hrs, and then cells were directly harvested and lysed with ACN/H2O (ratio 5:1). LCMS/MS was used to detect and measure NAD^+ concentration/content. […] (FIG. 1)
# The NAD^+ concentration or content was determined in human primary hepatocytes treated with Compound 1 and MEHP, a known ACMSD inhibitor. MEHP was used as a control.
# At least three experiments were run treating primary hepatocytes with different concentrations of Compound 1 (0.5 μM, 5 μM, and 50 μM) after 48 hrs from seeding. Compound 1 was replaced every 24 hrs, and then cells were directly harvested and lysed with ACN/H2O (ratio 5:1). […]
# ACMSD-1, sequence (Q8TDX5 whole entry): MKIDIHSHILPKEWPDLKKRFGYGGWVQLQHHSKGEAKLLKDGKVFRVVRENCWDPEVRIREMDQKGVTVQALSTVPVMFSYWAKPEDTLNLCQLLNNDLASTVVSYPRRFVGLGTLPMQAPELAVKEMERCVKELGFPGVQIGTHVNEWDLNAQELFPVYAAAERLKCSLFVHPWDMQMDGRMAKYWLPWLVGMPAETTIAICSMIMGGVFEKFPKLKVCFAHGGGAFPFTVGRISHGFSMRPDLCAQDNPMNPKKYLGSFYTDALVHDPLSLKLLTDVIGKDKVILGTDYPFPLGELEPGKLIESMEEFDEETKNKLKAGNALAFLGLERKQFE
compound,measurement,setting,value
N#Cc1c(-c2ccccc2)nc(SCc2cccc(C(=O)O)c2)[nH]c1=O [Compound 1],ACMSD-1 activity in over-expression cell-based assay,ACMSD-1,"inhibited ACMSD-1 activity, in a dose dependent manner"
same,SOD2 activity,[1],induced in a dose-dependent manner
same,SOD2 activity,[2],induced in a dose-dependent manner
same,Sod2 mRNA levels,AML-12 cells [3],increased in a dose-dependent manner
same,Sod2 mRNA levels,Hepa-1.6 cells,increased in a dose-dependent manner
same,Cytotoxicity AML-12,AML-12 cells [4],Not Toxic
same,Cytotoxicity Hep-G2,HePG2 cells,Not Toxic
same,FoxO1 phosphorylation at Ser256,[5],decrease
N#Cc1c(-c2nccs2)nc(SCc2cccc(C(=O)O)c2)[nH]c1=O [Compound 5],Cytotoxicity AML-12,AML-12 cells [4],Not Toxic
same,Cytotoxicity Hep-G2,HePG2 cells,Not Toxic
N#Cc1c(-c2cccs2)nc(SCc2cccc(-c3nn[nH]n3)c2)[nH]c1=O [Compound 17],SOD2 activity,[1],induced in a dose-dependent manner
same,dose at which effect on SOD2 activity reached a maximum,[2]; primary hepatocytes,about 50 nM
same,SOD2 activity,[2],induced in a dose-dependent manner
same,intra-cellular NAD+ levels,[6],significant and dose-dependent increase; also recorded: increase in NAD^+ levels
same,Pgc1a mRNA expression level,[7],dose-dependent increase
same,Sod2 (MnSOD) mRNA expression level,[7],dose-dependent increase
same,Cytotoxicity AML-12,AML-12 cells [4],Not Toxic
same,Cytotoxicity Hep-G2,HePG2 cells,Not Toxic
same,FoxO1 phosphorylation at Ser256,[5],decrease
O=C(O)c1cccc(CSc2nc(-c3ccccc3)c(Br)c(=O)[nH]2)c1 [Compound 11],Cytotoxicity AML-12,AML-12 cells [4],Not Toxic
same,Cytotoxicity Hep-G2,HePG2 cells,Not Toxic
N#Cc1c(-c2cccs2)nc(SCc2cccc(-c3noc(=O)[nH]3)c2)[nH]c1=O [Compound 19],Cytotoxicity AML-12,AML-12 cells [4],Not Toxic
same,Cytotoxicity Hep-G2,HePG2 cells,Not Toxic
N#Cc1c(-c2cccs2)nc(SCc2cccc(CC(=O)O)c2)[nH]c1=O [Compound 18],EC50,"MDCK cells; 1 h, added one hour prior to cisplatin, 1 μM to 125 μM",30 µM
same,EC50,"MDCK cells; added in combination with cisplatin, 0.01 μM to 100 μM",70 µM
same,activity of caspase 3/7 induced by cisplatin,"MDCK cells; MDCK cells, cisplatin 50 μM for 16 hrs","decreases, in significant manner"
N#Cc1c(-c2cccs2)nc(SCc2cccc(C(=O)O)c2)[nH]c1=O [Compound 4],"concentration at which ACMSD-1 enzyme is inhibited (NAD+ content, FIG. 1)",[8],≤ 0.5 µM
same,Cytotoxicity AML-12,AML-12 cells [4],Not Toxic
same,Cytotoxicity Hep-G2,HePG2 cells,Not Toxic
N#Cc1c(-c2ccc(Cl)cc2)nc(SCc2ccc(C(=O)O)cc2)[nH]c1=O [Compound 8],Cytotoxicity AML-12,AML-12 cells [4],Not Toxic
same,Cytotoxicity Hep-G2,HePG2 cells,Not Toxic
